Type in all cases: cell-based, human
The test system of experiment [1] is CTGF, fibronectin. As to the kind of experiment: Western blot of irradiated HFL-1 cells treated with HMG-CoA inhibitors. To be noted: 5 Gy, three days, FIG. 8C; for amount of CTGF detected in the cell lysate (CL): HMG-CoA inhibitor pretreatment 6 hours. How it is done: For statin treatment experiments, cells were grown overnight in 35 mm plates (6-well plates were also used in some studies) to form a 75-80% confluent monolayer. The cells were then washed with PBS, and the media was changed to SFM (800 μL).
(§1) Harvesting Culture Media and Cell Lystates. For analysis of extracellular CTGF, fibronectin, and α-tubulin, cell culture media was collected, centrifuged to remove cellular debris, aliquoted, and frozen at −70° C. until ready for use. For analysis of intracellular CTGF, fibronectin, and α-tubulin, cell lysates were harvested using 200 μL of HBSST lysis buffer (HBSS containing 1 mM MgSO4, 1 mM CaCl2, 4 mM NaHCO3, 0.5% Triton X-100, protease inhibitor cocktail). Cellular debris was removed by centrifugation.
Western blot analysis of HFL-1 whole cell proteins. […] Primary antibodies for CTGF and fibronectin were diluted at 1:600 and were incubated at 4° C. overnight with shaking. Primary antibodies for α-tubulin were diluted at 1:4,000 and were incubated at 4° C. overnight with shaking. Corresponding secondary antibodies were diluted at 1:6,000 and were incubated at room temperature for 1 hour with shaking. After washing the blot, the antibodies were detected by the enhanced chemiluminescence method (PerkinElmer Life Sciences Inc.).
Cells were harvested, and cell lysates were separated by SDS-PAGE. The separated proteins were then transferred to nitrocellulose, and Western immunoblotting was performed with antibodies specific for CTGF, fibronectin, and α-tubulin. […] As a control for protein loading, α-tubulin expression in HFL-1 cells was also determined.
Cells were harvested, and cell lysates were separated by SDS-PAGE. The separated proteins were then transferred to nitrocellulose, and Western immunoblotting was performed with antibodies specific for CTGF, fibronectin, and α-tubulin. FIG. 8C is a Western blot of HFL-1 cells exposed to radiation and treated with HMG-CoA inhibitors.

The test system of experiment [2] is CTGF, fibronectin. The experiment in a line: Western blot of HDF cells treated with TGF-β1. To be noted: three days after TGF-β1, FIG. 9B. How it is done: (§2) Cell Culture and Treatment. Normal human fetal lung fibroblasts (HFL-1) were purchased from the American Type Culture Collection (ATCC Number: CCL-153) and cultured in Ham's F12K medium (American Type Culture Collection) supplemented with 2 mM L-glutamine adjusted to contain 1.5 g/L sodium bicarbonate and 10% fetal bovine serum. Cells were maintained in humidified 5% CO2 at 37° C. Human dermal fibroblasts (HDF), derived from the dermis of normal human adult skin, were purchased from Invitrogen, Inc. and cultured in Medium-106 (Invitrogen, Inc., Catalogue No. M-106-500) containing LSGS Kit (Invitrogen, Inc., Catalogue No. S-003-K) prior to use. After reaching 75-80% confluence, the medium was changed to serum free medium (SFM) for irradiation with different dose 1Gy, 2.5Gy, 5Gy, 7.5Gy and 10 Gy by using ^137Se. […]
Harvesting Culture Media and Cell Lystates. For analysis of extracellular CTGF, fibronectin, and α-tubulin, cell culture media was collected, centrifuged to remove cellular debris, aliquoted, and frozen at −70° C. until ready for use. […]
Western blot analysis of HFL-1 whole cell proteins. […] After washing the blot, the antibodies were detected by the enhanced chemiluminescence method (PerkinElmer Life Sciences Inc.).
Protein expression in HDF cells treated with TGF-β1 was also determined. […] As a control for protein loading, α-tubulin expression in HFL-1 cells was also determined.
In general terms: A western blot detects proteins with antibodies after separation by electrophoresis.

Experiment [3] concerns CTGF, fibronectin (FN), collagen type IV (Col IV) mRNA. As to the kind of experiment: RT-PCR of mRNA expression in HDF cells treated with TGF-β1. To be noted: 0 to 25 ng/ml TGF-β1, FIG. 9A. How it is done:
as §2, with “^137Se. Alternatively, cells were treated with 5 ng/ml TGF-β1 (Sigma-Aldrich, Inc., Catalogue No. T7039) to stimulate CTGF production. The cells were then kept for 3 days in humidified 5% CO2 at 37° C. and subjected to Western immunoblot.^1 ^1What are the culture conditions (e.g., media) for M12 cells used in FIG. 3?” for “^137Se.”
Human dermal fibroblasts (HDF) were treated with varying concentrations of TGF-β1, ranging from 0 ng/ml to 25 ng/ml, […]. […] FIG. 9A is an agarose gel of RT-PCR products detected in HDF cells following a six (6) hour treatment with TGF-β1.

For experiment [4], the system named is CTGF, fibronectin. The experiment in a line: Western blot of HFL-1 cells treated with TGF-β1. How it is done:
Cell Culture and Treatment. Normal human fetal lung fibroblasts (HFL-1) were purchased from the American Type Culture Collection (ATCC Number: CCL-153) and cultured in Ham's F12K medium (American Type Culture Collection) supplemented with 2 mM L-glutamine adjusted to contain 1.5 g/L sodium bicarbonate and 10% fetal bovine serum. Cells were maintained in humidified 5% CO2 at 37° C. Human dermal fibroblasts (HDF), derived from the dermis of normal human adult skin, were purchased from Invitrogen, Inc. and cultured in Medium-106 (Invitrogen, Inc., Catalogue No. M-106-500) containing LSGS Kit (Invitrogen, Inc., Catalogue No. S-003-K) prior to use. After reaching 75-80% confluence, the medium was changed to serum free medium (SFM) for irradiation with different dose 1Gy, 2.5Gy, 5Gy, 7.5Gy and 10 Gy by using ^137Se. Alternatively, cells were treated with 5 ng/ml TGF-β1 (Sigma-Aldrich, Inc., Catalogue No. T7039) to stimulate CTGF production. […] 3?
as §1
Western blot analysis of HFL-1 whole cell proteins. The primary antibodies that selectively recognized CTGF (sc-14939) and fibronectin (sc-9068) were purchased from Santa Cruz Biotechnology, Inc., and primary antibodies that selectively recognized α-tubulin (T 9026) were purchased from Sigma. […] After washing the blot, the antibodies were detected by the enhanced chemiluminescence method (PerkinElmer Life Sciences Inc.).
Protein expression in HFL-1 cells treated with TGF-β1 was also determined. […] As a control for protein loading, α-tubulin expression in HFL-1 cells was also determined.

The subject of experiment [5] is CTGF, fibronectin (FN), collagen type IV (Col IV) mRNA. The experiment in a line: RT-PCR of mRNA expression in HFL-1 cells treated with TGF-β1. As to conditions: 0 to 25 ng/ml TGF-β1, six hour treatment, FIG. 5A. How it is done: Cell Culture and Treatment. Normal human fetal lung fibroblasts (HFL-1) were purchased from the American Type Culture Collection (ATCC Number: CCL-153) and cultured in Ham's F12K medium (American Type Culture Collection) supplemented with 2 mM L-glutamine adjusted to contain 1.5 g/L sodium bicarbonate and 10% fetal bovine serum. Cells were maintained in humidified 5% CO2 at 37° C. Human dermal fibroblasts (HDF), derived from the dermis of normal human adult skin, were purchased from Invitrogen, Inc. and cultured in Medium-106 (Invitrogen, Inc., Catalogue No. M-106-500) containing LSGS Kit (Invitrogen, Inc., Catalogue No. S-003-K) prior to use. After reaching 75-80% confluence, the medium was changed to serum free medium (SFM) for irradiation with different dose 1Gy, 2.5Gy, 5Gy, 7.5Gy and 10 Gy by using ^137Se. Alternatively, cells were treated with 5 ng/ml TGF-β1 (Sigma-Aldrich, Inc., Catalogue No. T7039) to stimulate CTGF production. The cells were then kept for 3 days in humidified 5% CO2 at 37° C. and subjected to Western immunoblot.^1 ^1What are the culture conditions (e.g., media) for M12 cells used in FIG. 3? […]
Normal human fetal lung fibroblasts (HFL-1) were treated with varying concentrations of TGF-β1, ranging from 0 ng/ml to 25 ng/ml. […] FIG. 5A is an agarose gel of RT-PCR products detected in HFL-1 cells following a six (6) hour treatment with TGF-β1.

Setting [6] is: three days after TGF-β1, FIG. 5B.

With `CC[C@H](C)C(=O)O[C@H]1CCC=C2C=C[C@H](C)[C@H](CC[C@@H]3C[C@@H](O)CC(=O)O3)C21` (stereo partly drawn) [mevastatin, (2S)-2-methyl-butanoic acid(1S,7S,8S,8aR)-1,2,3,7,8,8a-hexahydro-7-methyl-8-[2-[(2R,4R)-tetrahydro-4-hydroxy-6-oxo-2H-pyran-2-yl]ethyl]-1-naphthale-nylester], in the experiment with CTGF, fibronectin [1], the “amount of CTGF detected in the cell lysate (CL)” value (from here on “amount of CTGF detected”) is “decreased as the amount of HMG-CoA inhibitor increased”.
Still for that read-out and setting: under “(2S)-2-methyl-butanoic acid(1S,3R,7S,8S,8aR)-1,2,3,7,8,8a-hexahydro-3,7-dimethyl-8-[2-[(2R,4R)-tetrahydro-4-hydroxy-6-oxo-2H-pyran-2-yl]ethyl]-1-na-phthalenylester [mevinolin]” stands “decreased as the amount of HMG-CoA inhibitor increased”.
For `CCOP(=O)(OCC)C(=Cc1cc(C(C)(C)C)c(O)c(C(C)(C)C)c1)P(=O)(OCC)OCC` [SR12813], the “amount of CTGF detected” value in the experiment with CTGF, fibronectin [1] is on record as “decreased as the amount of HMG-CoA inhibitor increased”. The “inhibitory effects on radiation-induced CTGF relative to other HMG-CoA inhibitors” value in the experiment with CTGF, fibronectin [1] (pretreatment 6 hours) was “reduced relative to the inhibitory effects of simvastatin, pravastatin, lovastatin, mevinolin, and mevastatin”.
For the compound `CC[C@H](C)C(=O)O[C@H]1C[C@H](O)C=C2C=C[C@H](C)[C@H](CC[C@@H](O)C[C@@H](O)CC(=O)O)[C@H]21` [pravastatin, (βR,δR,1S,2S,6S,8S,8aR)-1,2,6,7,8,8a-hexahydro-β,δ,-6-trihydroxy-2-methyl-8-[(2S)-2-methyl-1-oxobutoxy]-1-naphthalene-heptanoic acid], the “amount of CTGF detected” value in the experiment on CTGF, fibronectin [1] is “decreased as the amount of HMG-CoA inhibitor increased”.
As for “TGF-β1: Cytokine used to stimulate CTGF production (Sigma-Aldrich, Inc., Catalogue No. T7039)”, the “amount of CTGF in culture medium (CM) and cell lysate (CL)” value is on record as “increased as the amount of TGF-β1 increased” in the experiment with CTGF, fibronectin [2] and “increased as the amount of TGF-β1 increased” with CTGF, fibronectin [4] (setting [6]). The fibronectin protein expression entry in the experiment on CTGF, fibronectin [2] was “same increase in protein expression”; in the experiment on CTGF, fibronectin [4] (setting [6]) it was “same increase in protein expression”. Moreover, the “expression of CTGF, FN, and Col IV mRNA” value in experiment [3] and in experiment [5] was “increased as the concentration of TGF-β1 increased” each time. Further, in the experiment on CTGF, fibronectin [4] (5 ng/ml TGF-β1 for 4 days, FIG. 1), the CTGF expression result is given as “increased”.

The values above are taken from patent US20090069623A1, “METHODS AND COMPOSITIONS FOR TREATMENT OR PREVENTION OF RADIATION-INDUCED FIBROSIS” (Virginia Commonwealth University Intellectual Property …, priority 2007, published 2009).
